8 molecules from ChEMBL document CHEMBL1201861, “Genomics of Drug Sensitity in Cancer screening data, Wellcome Trust Sanger Institute” can be followed below.

Common to all, as to assay: cells
Type in all cases: functional, cell-based, Homo sapiens

In one test the test system is MZ2-MEL. As to conditions: Homo sapiens, MZ2-MEL.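 Note: growth inhibition of MZ2-MEL cells read out with a cell viability assay.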
A further test relates to NCI-H1581. The note with it: Homo sapiens, NCI-H1581.
In the next test the test system is MPP-89. The note with it: Homo sapiens, MPP-89.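 Note: growth inhibition of human MPP-89 cells, read out with a cell viability assay.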
A further test has as its system NCI-H226. As to conditions: Homo sapiens, NCI-H226.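 Note: cell viability read-out used to gauge growth inhibition of the cells.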
The subject of a further test is NCI-H716. The note with it: Homo sapiens, NCI-H716.
The next test deals with MSTO-211H. As to conditions: Homo sapiens, MSTO-211H.
The next test deals with MRK-nu-1. As to conditions: Homo sapiens, MRK-nu-1.
In another test the test system is LB996-RCC. As to conditions: Homo sapiens, LB996-RCC.
The next test deals with LXF-289 cell line. The note with it: Homo sapiens, LXF-289.
For a further test, the system named is HCE-4. The note with it: Homo sapiens, HCE-4.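 Note: cell viability assay measuring inhibition of growth in the human HCE-4 cell line.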
A further test has as its system KU812 cell line. As to conditions: Homo sapiens, KU812.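 Note: growth inhibition of KU812 cells, read out with a cell viability assay.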
The subject of a further test is LS-411N. As to conditions: Homo sapiens, LS-411N.
In a further test the test system is SK-N-DZ. As to conditions: Homo sapiens, SK-N-DZ.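 Note: growth inhibition of the cancer cell line, read out through a viability assay.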
The test system of another test is MC116. The note with it: Homo sapiens, MC116.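 Note: growth inhibition of MC116 cells, read out with a cell viability assay.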
A further test relates to CPC-N. The note with it: Homo sapiens, CPC-N.
The next test deals with OS-RC-2. The note with it: Homo sapiens, OS-RC-2.
Another test has as its system THP-1. The note with it: Homo sapiens, THP-1.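 Note: growth inhibition of THP-1 cells, read out via a cell viability assay.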
For a further test, the system named is NCI-H720. As to conditions: Homo sapiens, NCI-H720.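 Note: growth inhibition of human NCI-H720 cells determined by a cell viability assay.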
Another test deals with LNCaP-Clone-FGC. The note with it: Homo sapiens, LNCaP-Clone-FGC.
The next test relates to D-542MG. As to conditions: Homo sapiens, D-542MG.

Description for CPC-N: SANGER: Inhibition of human CPC-N cell growth in a cell viability assay.
Description for D-542MG: SANGER: Inhibition of human D-542MG cell growth in a cell viability assay.
Description for HCE-4: SANGER: Inhibition of human HCE-4 cell growth in a cell viability assay.
Description for KU812 cell line: SANGER: Inhibition of human KU812 cell growth in a cell viability assay.
Description for LB996-RCC: SANGER: Inhibition of human LB996-RCC cell growth in a cell viability assay.
Description for LNCaP-Clone-FGC: SANGER: Inhibition of human LNCaP-Clone-FGC cell growth in a cell viability assay.
Description for LXF-289 cell line: SANGER: Inhibition of human LXF-289 cell growth in a cell viability assay.
Description for MC116: SANGER: Inhibition of human MC116 cell growth in a cell viability assay.
Description for MPP-89: SANGER: Inhibition of human MPP-89 cell growth in a cell viability assay.
Description for MRK-nu-1: SANGER: Inhibition of human MRK-nu-1 cell growth in a cell viability assay.
Description for MSTO-211H: SANGER: Inhibition of human MSTO-211H cell growth in a cell viability assay.
Description for MZ2-MEL: SANGER: Inhibition of human MZ2-MEL cell growth in a cell viability assay.
Description for NCI-H1581: SANGER: Inhibition of human NCI-H1581 cell growth in a cell viability assay.
Description for NCI-H226: SANGER: Inhibition of human NCI-H226 cell growth in a cell viability assay.
Description for NCI-H716: SANGER: Inhibition of human NCI-H716 cell growth in a cell viability assay.
Description for NCI-H720: SANGER: Inhibition of human NCI-H720 cell growth in a cell viability assay.
Description for OS-RC-2: SANGER: Inhibition of human OS-RC-2 cell growth in a cell viability assay.
Description for SK-N-DZ: SANGER: Inhibition of human SK-N-DZ cell growth in a cell viability assay.
Description for THP-1: SANGER: Inhibition of human THP-1 cell growth in a cell viability assay.

Consider `COc1cc2ncn(-c3cc(OCc4ccccc4C(F)(F)F)c(C(N)=O)s3)c2cc1OC` [GW843682X], for which the IC50 was 126 nM in the test with MZ2-MEL; 30.5 nM with NCI-H1581; 226 nM in the test with MPP-89; > 256 nM in the test on NCI-H226; > 256 nM with NCI-H716; > 256 nM in the test on MSTO-211H. In addition, the half-maximal inhibitory concentration (IC50) was found to be 30.1 nM with MRK-nu-1; 104 nM with LB996-RCC; 16.2 nM in the test on LXF-289 cell line; 13.9 nM in the test on HCE-4; 85.2 nM in the test on KU812 cell line; 8 nM with LS-411N. Also, the IC50 in the test on SK-N-DZ was 37.4 nM; in the test on MC116, 36.4 nM; with CPC-N it was 41.2 nM; in the test on OS-RC-2, 188 nM; with THP-1, > 256 nM; in the test on NCI-H720, > 256 nM. In the test with LNCaP-Clone-FGC, the half-maximal inhibitory concentration (IC50) is > 256 nM.

As to `C#Cc1cccc(Nc2ncnc3cc(OCCOC)c(OCCOC)cc23)c1` [ERLOTINIB], the IC50 with MZ2-MEL, with NCI-H1581, in the test on MPP-89, with D-542MG, in the test with NCI-H226 and with NCI-H716 was > 2000 nM each time. For the same molecule, the IC50 in the test on MRK-nu-1 is > 2000 nM; in the test on LB996-RCC, 402 nM; in the test with LXF-289 cell line, > 2000 nM; with KU812 cell line, > 2000 nM; in the test on LS-411N, > 2000 nM; in the test with SK-N-DZ, > 2000 nM. The IC50 in the test on MC116, in the test with CPC-N, in the test with OS-RC-2, in the test on THP-1, in the test with NCI-H720 and with LNCaP-Clone-FGC was > 2000 nM throughout.

On to `N[C@@H](CSC(c1ccccc1)(c1ccccc1)c1ccccc1)C(=O)O` [S-TRITYL-L-CYSTEINE], for which the IC50 in the test on MZ2-MEL was > 5120 nM; in the test with NCI-H1581 it was 3600 nM; with MPP-89, > 5120 nM; in the test with NCI-H226, > 5120 nM; in the test on NCI-H716, > 5120 nM; with MSTO-211H, > 5120 nM. Besides, the IC50 was 760 nM in the test on MRK-nu-1; 2900 nM in the test with LB996-RCC; 977 nM in the test with LXF-289 cell line; 469 nM with HCE-4; > 5120 nM in the test with KU812 cell line; 1520 nM in the test on LS-411N. Moreover, the IC50 in the test with SK-N-DZ was 3140 nM; in the test with MC116, 709 nM; in the test with CPC-N, 2460 nM; in the test with OS-RC-2, > 5120 nM; in the test on THP-1 it was > 5120 nM; in the test with NCI-H720, > 5120 nM. Moreover, in the test on LNCaP-Clone-FGC, the 50% inhibitory concentration (IC50) is > 5120 nM.

Take `Cc1ccc(-c2c(C(=O)CCl)n(CCCO)c3ncnc(N)c23)cc1`: the half-maximal inhibitory concentration (IC50) in the test with MZ2-MEL, with NCI-H1581, in the test on MPP-89, in the test on NCI-H226, in the test on NCI-H716 and in the test with MSTO-211H was > 4000 nM each time. Besides, the IC50 is 2520 nM with MRK-nu-1; > 4000 nM with LB996-RCC; > 4000 nM in the test on LXF-289 cell line; > 4000 nM with HCE-4; > 4000 nM with KU812 cell line; > 4000 nM with LS-411N. The IC50 in the test on SK-N-DZ, in the test with MC116, in the test with CPC-N, in the test with OS-RC-2, in the test on THP-1 and with NCI-H720 was > 4000 nM in each case. Also, in the test on LNCaP-Clone-FGC, the IC50 is > 4000 nM.

On to `CC(=O)O[C@H]1C(=O)[C@@]2(C)[C@H]([C@H](OC(=O)c3ccccc3)[C@]3(O)C[C@H](OC(=O)[C@H](O)[C@@H](NC(=O)c4ccccc4)c4ccccc4)C(C)=C1C3(C)C)[C@]1(OC(C)=O)CO[C@@H]1C[C@@H]2O` [PACLITAXEL], for which the IC50 was 47.4 nM in the test on MZ2-MEL; 49.5 nM in the test with NCI-H1581; > 102 nM with MPP-89; > 102 nM in the test with NCI-H226; > 102 nM in the test on NCI-H716; > 102 nM in the test with MSTO-211H. In addition, the IC50 with MRK-nu-1 was 2.99 nM; in the test with LB996-RCC, 77.1 nM; in the test on LXF-289 cell line, 8.18 nM; in the test on HCE-4, 7.67 nM; in the test with KU812 cell line, 20.4 nM; in the test on LS-411N it was 7.17 nM. For the same molecule, the IC50 in the test on SK-N-DZ was 73.1 nM; with MC116 it was 2.89 nM; in the test on CPC-N, 30.8 nM; in the test on OS-RC-2, 77.5 nM; in the test on THP-1 it was > 102 nM; with NCI-H720, > 102 nM. The IC50 in the test with LNCaP-Clone-FGC was > 102 nM.

Consider `COc1cc(-c2nn([C@H]3CC[C@H](N4CCN(C(C)=O)CC4)CC3)c3ncnc(N)c23)ccc1NC(=O)c1cc2ccccc2n1C`, for which the IC50 in the test on MZ2-MEL, in the test with NCI-H1581, with MPP-89, in the test with NCI-H226, in the test on NCI-H716 and with MSTO-211H was > 5120 nM in each case. Further, the IC50 in the test with MRK-nu-1 is 2950 nM; with LB996-RCC, 74.6 nM; in the test with LXF-289 cell line it was 757 nM; in the test with HCE-4 it was 2340 nM; in the test with KU812 cell line, > 5120 nM; in the test with LS-411N, > 5120 nM. Besides, the IC50 in the test with SK-N-DZ was > 5120 nM; in the test with MC116, 856 nM; in the test on CPC-N it was > 5120 nM; with OS-RC-2, 755 nM; in the test with THP-1 it was > 5120 nM; with NCI-H720, > 5120 nM. The half-inhibitory concentration (IC50) with LNCaP-Clone-FGC was > 5120 nM.

As for `CCN(CC)CCNC(=O)c1c(C)[nH]c(/C=C2\C(=O)Nc3ccc(F)cc32)c1C` [SUNITINIB], the IC50 in the test on MZ2-MEL, in the test with NCI-H1581, in the test with MPP-89, in the test with NCI-H226, in the test with NCI-H716 and in the test with MSTO-211H was > 8000 nM each time. Moreover, the IC50 with MRK-nu-1 is > 8000 nM; in the test on LB996-RCC, 4120 nM; with LXF-289 cell line it was 2730 nM; in the test on HCE-4, 3790 nM; with KU812 cell line it was 6690 nM; with LS-411N it was > 8000 nM. Further, the IC50 in the test on SK-N-DZ is 4670 nM; in the test on MC116, 4430 nM; in the test on CPC-N, > 8000 nM; in the test on OS-RC-2, 4870 nM; in the test on THP-1, > 8000 nM; in the test with NCI-H720, > 8000 nM. Further, in the test with LNCaP-Clone-FGC, the IC50 is > 8000 nM.

In the case of `OCCCNc1cc(-c2ccnc(Nc3cccc(Cl)c3)n2)ccn1`, the concentration for half-maximal inhibition (IC50) in the test on MZ2-MEL is 62.7 nM; in the test with NCI-H1581, > 256 nM; with MPP-89 it was 90.4 nM; with NCI-H226, 213 nM; in the test with NCI-H716 it was > 256 nM; in the test with MSTO-211H, > 256 nM. For the same molecule, the 50% inhibitory concentration (IC50) in the test on MRK-nu-1 was 37.3 nM; with LB996-RCC, 32.5 nM; with LXF-289 cell line it was 164 nM; in the test with HCE-4 it was > 256 nM; with KU812 cell line, 45 nM; in the test on LS-411N, 37.9 nM. The IC50 with SK-N-DZ is > 256 nM; in the test with MC116, 40.7 nM; in the test on CPC-N, > 256 nM; with OS-RC-2, 82.9 nM; with THP-1 it was > 256 nM; in the test on NCI-H720, > 256 nM. Besides, the IC50 in the test with LNCaP-Clone-FGC is > 256 nM.
